Assay results taken from US20250235543A1, “MODIFIED PROTEINS AND PROTEIN DEGRADERS” (Cullgen (Shanghai), Inc., priority 2021, published 2025).

How the values were obtained:
CDK4 = biological target: T1, CDK4 (Homo sapiens, UniProt P11802); experiment: CDK4 percentage degradation in Calu-1 cells (immunoblotting); assay type: cell-based; conditions: Calu-1 cells, 16 hours; for inhibition at 10 µM: read-out: CDK4 Degradation (10 μM); for inhibition at 0.2 µM: 200 nM, read-out: CDK4 Degradation (200 nM)
T1 construct: endogenous in cells; host or cells: Calu-1
Outline: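 CDK4 degradation was measured by immunoblotting. Cells were washed in cold PBS and lysed in RIPA buffer with inhibitors for 30 min at 4° C., then spun at 13,000 rpm to clear. After BCA protein determination, lysates were heated at 99° C. for 5 min in Laemmli buffer, resolved on SDS-PAGE, imaged on a ChemiDoc MP with ECL substrate, and band intensities quantified.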

cyclin D1 = experiment: Cyclin D1 percentage degradation in Calu-1 cells (immunoblotting); assay type: cell-based; conditions: 16 hours
Outline: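 Cyclin D1 degradation was assessed by western blot. Clarified lysates, obtained by RIPA lysis with inhibitors and centrifugation at 13,000 rpm, were normalized by BCA protein assay and separated by SDS-PAGE. Bands were detected with Western ECL Substrate on a Bio-Rad ChemiDoc MP Imaging system and quantified in Image Lab software to derive percentage degradation.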

T1 sequence (P11802 2-303 limits assumed): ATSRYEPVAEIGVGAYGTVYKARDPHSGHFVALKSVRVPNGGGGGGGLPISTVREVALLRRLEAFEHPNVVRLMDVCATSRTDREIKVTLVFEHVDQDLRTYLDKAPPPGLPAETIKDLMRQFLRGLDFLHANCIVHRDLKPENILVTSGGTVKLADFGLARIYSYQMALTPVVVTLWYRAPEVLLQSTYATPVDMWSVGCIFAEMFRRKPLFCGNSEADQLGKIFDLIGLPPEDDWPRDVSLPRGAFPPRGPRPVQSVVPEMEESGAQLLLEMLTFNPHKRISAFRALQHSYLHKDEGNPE
T1 sequence (P24385 whole entry partner): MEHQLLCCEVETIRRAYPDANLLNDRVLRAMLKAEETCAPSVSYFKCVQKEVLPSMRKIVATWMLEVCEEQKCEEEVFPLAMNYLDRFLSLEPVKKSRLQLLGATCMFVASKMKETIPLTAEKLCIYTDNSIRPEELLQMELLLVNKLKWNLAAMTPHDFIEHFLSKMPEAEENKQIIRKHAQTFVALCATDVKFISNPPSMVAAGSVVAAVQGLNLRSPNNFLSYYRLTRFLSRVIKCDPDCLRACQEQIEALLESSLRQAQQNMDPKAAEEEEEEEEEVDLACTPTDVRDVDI
T1 sequence (Q16531 2-1140 limits assumed, further chain): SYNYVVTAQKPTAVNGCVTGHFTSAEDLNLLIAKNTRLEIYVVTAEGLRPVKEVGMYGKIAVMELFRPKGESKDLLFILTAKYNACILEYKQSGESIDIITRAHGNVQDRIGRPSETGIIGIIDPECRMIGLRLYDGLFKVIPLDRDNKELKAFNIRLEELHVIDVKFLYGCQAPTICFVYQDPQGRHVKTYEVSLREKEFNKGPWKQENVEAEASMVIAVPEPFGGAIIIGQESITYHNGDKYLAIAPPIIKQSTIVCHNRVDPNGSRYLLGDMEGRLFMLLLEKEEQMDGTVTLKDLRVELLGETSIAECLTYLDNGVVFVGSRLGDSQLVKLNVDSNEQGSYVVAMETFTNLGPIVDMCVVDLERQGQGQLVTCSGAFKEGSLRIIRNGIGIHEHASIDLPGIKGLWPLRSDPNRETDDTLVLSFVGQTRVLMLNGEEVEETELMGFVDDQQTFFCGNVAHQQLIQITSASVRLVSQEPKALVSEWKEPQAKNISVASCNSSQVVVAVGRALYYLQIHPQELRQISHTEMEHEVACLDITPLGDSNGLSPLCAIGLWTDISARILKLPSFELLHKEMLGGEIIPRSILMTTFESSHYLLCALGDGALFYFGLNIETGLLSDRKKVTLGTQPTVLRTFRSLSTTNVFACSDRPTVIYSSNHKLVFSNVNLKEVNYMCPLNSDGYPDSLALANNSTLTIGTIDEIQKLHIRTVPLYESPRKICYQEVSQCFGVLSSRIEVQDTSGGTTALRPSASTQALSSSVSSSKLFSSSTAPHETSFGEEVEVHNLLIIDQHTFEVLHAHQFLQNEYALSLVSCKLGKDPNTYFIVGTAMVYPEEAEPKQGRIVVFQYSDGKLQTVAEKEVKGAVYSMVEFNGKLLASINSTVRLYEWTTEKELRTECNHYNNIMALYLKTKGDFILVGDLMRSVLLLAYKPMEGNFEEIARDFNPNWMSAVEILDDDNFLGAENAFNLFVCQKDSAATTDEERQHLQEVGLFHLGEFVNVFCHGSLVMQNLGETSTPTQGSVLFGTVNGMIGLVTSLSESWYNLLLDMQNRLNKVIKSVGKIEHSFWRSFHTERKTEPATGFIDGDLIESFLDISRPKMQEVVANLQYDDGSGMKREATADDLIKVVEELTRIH

| Structure (SMILES) | inhibition at 10 µM (CDK4) | CyclinD1 Degradation (10 μM) (cyclin D1) | inhibition at 0.2 µM (CDK4) | CyclinD1 Degradation (200 nM) (cyclin D1) |
| --- | --- | --- | --- | --- |
| Cc1nc(NC(=O)c2ccccc2NC(=O)CCOCCOCCOCCOCCOCCNC(=O)CN2CCN(c3ccc(Nc4ncc(F)c(-c5cc(F)c6nc(C)n(C(C)C)c6c5)n4)nc3)CC2)sc1C [CPD-312, N-(4,5-Dimethylthiazol-2-yl)-2-(1-(4-(6-((5-fluoro-4-(4-fluoro-1-isopropyl-2-methyl-1H-benzo[d]imidazol-6-yl)pyrimidin-2-yl)amino)pyridin-3-yl)piperazin-1-yl)-2-oxo-6,9,12,15,18-pentaoxa-3-azahenicosan-21-amido)benzamide] | < 30% | A (protein percentage degradation >= 80%) |  |  |
| CC(=O)c1c(C)c2cnc(Nc3ccc(N4CCN(CC(=O)NCCOCCOCCC(=O)Nc5ccccc5C(=O)Nc5nc(C6CCNCC6)c(C)s5)CC4)cn3)nc2n(C2CCCC2)c1=O [CPD-072, 2-(3-(2-(2-(2-(4-(6-((6-Acetyl-8-cyclopentyl-5-methyl-7-oxo-7,8-dihydropyrido[2,3-d]pyrimidin-2-yl)amino)pyridin-3-yl)piperazin-1-yl)acetamido)ethoxy)ethoxy)propanamido)-N-(5-methyl-4-(piperidin-4-yl)thiazol-2-yl)benzamide] |  |  | 50 to 80% | D (protein percentage degradation <30%) |
| Cc1nc(NC(=O)c2ccccc2NC(=O)CCCNC(=O)CN2CCN(Cc3ccc(Nc4ncc(F)c(-c5cc(F)c6nc(C)n(C(C)C)c6c5)n4)nc3)CC2)sc1C [CPD-274, N-(4,5-Dimethylthiazol-2-yl)-2-(4-(2-(4-((6-((5-fluoro-4-(4-fluoro-1-isopropyl-2-methyl-1H-benzo[d]imidazol-6-yl)pyrimidin-2-yl)amino)pyridin-3-yl)methyl)piperazin-1-yl)acetamido)butanamido)benzamide] | < 30% | B (protein percentage degradation < 80%, and >= 50%) |  |  |
| CC(=O)c1c(C)c2cnc(Nc3ccc(N4CCN(CC(=O)NCCOCCOCCC(=O)Nc5ccccc5C(=O)Nc5nc(C(F)(F)F)c(C)s5)CC4)cn3)nc2n(C2CCCC2)c1=O [CPD-077, 2-(3-(2-(2-(2-(4-(6-((6-Acetyl-8-cyclopentyl-5-methyl-7-oxo-7,8-dihydropyrido[2,3-d]pyrimidin-2-yl)amino)pyridin-3-yl)piperazin-1-yl)acetamido)ethoxy)ethoxy)propanamido)-N-(5-methyl-4-(trifluoromethyl)thiazol-2-yl)benzamide] |  |  | 50 to 80% | D (protein percentage degradation <30%) |
| Cc1nc(NC(=O)c2ccccc2NC(=O)CCCNC(=O)CN2CCN(c3ccc(Nc4ncc5cc(C(=O)N(C)C)n(C6CCCC6)c5n4)nc3)CC2)sc1C [CPD-288, 7-Cyclopentyl-2-((5-(4-(2-((4-((2-((4,5-dimethylthiazol-2-yl)carbamoyl)phenyl)amino)-4-oxobutyl)amino)-2-oxoethyl)piperazin-1-yl)pyridin-2-yl)amino)-N,N-dimethyl-7H-pyrrolo[2,3-d]pyrimidine-6-carboxamide] | 50 to 80% | A (protein percentage degradation >= 80%) |  |  |
| CC(=O)c1c(C)c2cnc(Nc3ccc(N4CCN(CC(=O)NCCOCCOCCC(=O)Nc5ccccc5C(=O)Nc5ccc(N(C)C)nn5)CC4)cn3)nc2n(C2CCCC2)c1=O [CPD-185, 2-(3-(2-(2-(2-(4-(6-((6-Acetyl-8-cyclopentyl-5-methyl-7-oxo-7,8-dihydropyrido[2,3-d]pyrimidin-2-yl)amino)pyridin-3-yl)piperazin-1-yl)acetamido)ethoxy)ethoxy)propanamido)-N-(6-(dimethylamino)pyridazin-3-yl)benzamide] |  |  | > 80% | A (protein percentage degradation >=80%) |
| CC(=O)c1c(C)c2cnc(Nc3ccc(N4CCN(CC(=O)NCCOCCOCCOCCOCCOCCNc5ccc(C(=O)Nc6ncc(C7CC7)s6)c(C)c5)CC4)cn3)nc2n(C2CCCC2)c1=O [CPD-029, 4-((1-(4-(6-((6-Acetyl-8-cyclopentyl-5-methyl-7-oxo-7,8-dihydropyrido[2,3-d]pyrimidin-2-yl)amino)pyridin-3-yl)piperazin-1-yl)-2-oxo-6,9,12,15,18-pentaoxa-3-azaicosan-20-yl)amino)-N-(5-cyclopropylthiazol-2-yl)-2-methylbenzamide] |  |  | < 30% | D (protein percentage degradation <30%) |
| Cc1nc(NC(=O)c2ccccc2NC(=O)CNC(=O)CN2CCN(Cc3ccc(Nc4ncc(F)c(-c5cc(F)c6nc(C)n(C(C)C)c6c5)n4)nc3)CC2)sc1C [CPD-272, N-(4,5-Dimethylthiazol-2-yl)-2-(2-(2-(4-((6-((5-fluoro-4-(4-fluoro-1-isopropyl-2-methyl-1H-benzo[d]imidazol-6-yl)pyrimidin-2-yl)amino)pyridin-3-yl)methyl)piperazin-1-yl)acetamido)acetamido)benzamide] | < 30% | D (protein percentage degradation < 30%) |  |  |
| CC(=O)c1c(C)c2cnc(Nc3ccc(N4CCN(CC(=O)NCCOCCOCCC(=O)Nc5ccccc5C(=O)Nc5cn(C)cn5)CC4)cn3)nc2n(C2CCCC2)c1=O [CPD-063, 2-(3-(2-(2-(2-(4-(6-((6-Acetyl-8-cyclopentyl-5-methyl-7-oxo-7,8-dihydropyrido[2,3-d]pyrimidin-2-yl)amino)pyridin-3-yl)piperazin-1-yl)acetamido)ethoxy)ethoxy)propanamido)-N-(1-methyl-1H-imidazol-4-yl)benzamide] |  |  | < 30% | D (protein percentage degradation <30%) |
| CC(=O)c1c(C)c2cnc(Nc3ccc(N4CCN(CC(=O)NCCCNc5ccc(C)c(C(=O)Nc6nc(C)c(C)s6)c5)CC4)cn3)nc2n(C2CCCC2)c1=O [CPD-087, 5-((3-(2-(4-(6-((6-Acetyl-8-cyclopentyl-5-methyl-7-oxo-7,8-dihydropyrido[2,3-d]pyrimidin-2-yl)amino)pyridin-3-yl)piperazin-1-yl)acetamido)propyl)amino)-N-(4,5-dimethylthiazol-2-yl)-2-methylbenzamide] |  |  | < 30% | D (protein percentage degradation <30%) |
| CC(=O)c1c(C)c2cnc(Nc3ccc(N4CCN(CC(=O)NCCCCCCCCCNC(=O)COc5ccc(C(=O)Nc6ncc(C)s6)c(C)c5)CC4)cn3)nc2n(C2CCCC2)c1=O [CPD-038, 4-(2-((9-(2-(4-(6-((6-Acetyl-8-cyclopentyl-5-methyl-7-oxo-7,8-dihydropyrido[2,3-d]pyrimidin-2-yl)amino)pyridin-3-yl)piperazin-1-yl)acetamido)nonyl)amino)-2-oxoethoxy)-2-methyl-N-(5-methylthiazol-2-yl)benzamide] |  |  | < 30% | D (protein percentage degradation <30%) |
| CC(=O)c1c(C)c2cnc(Nc3ccc(N4CCN(CC(=O)NCCOCCOCCC(=O)Nc5ccccc5C(=O)Nc5nc(C6CCN(C)CC6)c(C)s5)CC4)cn3)nc2n(C2CCCC2)c1=O [CPD-080, 2-(3-(2-(2-(2-(4-(6-((6-Acetyl-8-cyclopentyl-5-methyl-7-oxo-7,8-dihydropyrido[2,3-d]pyrimidin-2-yl)amino)pyridin-3-yl)piperazin-1-yl)acetamido)ethoxy)ethoxy)propanamido)-N-(5-methyl-4-(1-methylpiperidin-4-yl)thiazol-2-yl)benzamide] |  |  | < 30% | D (protein percentage degradation <30%) |
| Cc1nc(NC(=O)c2ccccc2NC(=O)CCNC(=O)CN2CCN(c3ccc(Nc4ncc(F)c(-c5cc(F)c6nc(C)n(C(C)C)c6c5)n4)nc3)CC2)sc1C [CPD-301, N-(4,5-Dimethylthiazol-2-yl)-2-(3-(2-(4-(6-((5-fluoro-4-(4-fluoro-1-isopropyl-2-methyl-1H-benzo[d]imidazol-6-yl)pyrimidin-2-yl)amino)pyridin-3-yl)piperazin-1-yl)acetamido)propanamido)benzamide] | < 30% | D (protein percentage degradation < 30%) |  |  |
| CC(=O)c1c(C)c2cnc(Nc3ccc(N4CCN(CC(=O)NCCOCCOCCC(=O)Nc5ccccc5C(=O)Nc5nc(Br)c(C)s5)CC4)cn3)nc2n(C2CCCC2)c1=O [CPD-071, 2-(3-(2-(2-(2-(4-(6-((6-Acetyl-8-cyclopentyl-5-methyl-7-oxo-7,8-dihydropyrido[2,3-d]pyrimidin-2-yl)amino)pyridin-3-yl)piperazin-1-yl)acetamido)ethoxy)ethoxy)propanamido)-N-(4-bromo-5-methylthiazol-2-yl)benzamide] |  |  | > 80% | A (protein percentage degradation >=80%) |
| CCCCNc1ccc(C(=O)Nc2nc(C)c(C)s2)c(NC(=O)CCOCCOCCNC(=O)CN2CCN(c3ccc(Nc4ncc5c(C)c(C(C)=O)c(=O)n(C6CCCC6)c5n4)nc3)CC2)c1 [CPD-168, 2-(3-(2-(2-(2-(4-(6-((6-Acetyl-8-cyclopentyl-5-methyl-7-oxo-7,8-dihydropyrido[2,3-d]pyrimidin-2-yl)amino)pyridin-3-yl)piperazin-1-yl)acetamido)ethoxy)ethoxy)propanamido)-4-(butylamino)-N-(4,5-dimethylthiazol-2-yl)benzamide] |  |  | 50 to 80% | A (protein percentage degradation >=80%) |
| CC(=O)c1c(C)c2cnc(Nc3ccc(N4CCN(CC(=O)NCCCCCCCCC(=O)Nc5ccccc5C(=O)Nc5nc(C)c(C)s5)CC4)cn3)nc2n(C2CCCC2)c1=O [CPD-113, 2-(9-(2-(4-(6-((6-Acetyl-8-cyclopentyl-5-methyl-7-oxo-7,8-dihydropyrido[2,3-d]pyrimidin-2-yl)amino)pyridin-3-yl)piperazin-1-yl)acetamido)nonanamido)-N-(4,5-dimethylthiazol-2-yl)benzamide] |  |  | 50 to 80% | A (protein percentage degradation >=80%) |
